Patent US9266892B2, “Fused pyrazoles as FGFR inhibitors” (Incyte Corporation, priority 2012, dated 2016)

Key:
Format in all cases: biochemical
FGFR1 = target: T1, FGFR1 (Homo sapiens, UniProt P11362); assay: FGFR Enzymatic Assay (FRET peptide phosphorylation), FGFR1; conditions: FGFR1 0.02 nM, ATP 210 μM
T1 construct: purchased Millipore or Invitrogen
Summary of the method: (§1)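 Human FGFR1 (0.02 nM) and FGFR2 (0.01 nM) were pre-incubated with compound for 5-10 min in HEPES buffer pH 7.5, then reacted at 25 °C for 1 hr with 500 nM biotinylated peptide and ATP (FGFR1 210 μM; FGFR2 100 μM). Phosphopeptide was detected by Eu-PY20/APC-streptavidin TR-FRET after EDTA quench. IC50 came from variable-slope sigmoidal fits.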

FGFR3 = target: T2, FGFR3 (Homo sapiens, UniProt P22607); assay: FGFR Enzymatic Assay (FRET peptide phosphorylation), FGFR3; conditions: ATP 140 μM, 25° C. for 1 hr
T2 construct: purchased Millipore
T2 sequence (P22607 23-806): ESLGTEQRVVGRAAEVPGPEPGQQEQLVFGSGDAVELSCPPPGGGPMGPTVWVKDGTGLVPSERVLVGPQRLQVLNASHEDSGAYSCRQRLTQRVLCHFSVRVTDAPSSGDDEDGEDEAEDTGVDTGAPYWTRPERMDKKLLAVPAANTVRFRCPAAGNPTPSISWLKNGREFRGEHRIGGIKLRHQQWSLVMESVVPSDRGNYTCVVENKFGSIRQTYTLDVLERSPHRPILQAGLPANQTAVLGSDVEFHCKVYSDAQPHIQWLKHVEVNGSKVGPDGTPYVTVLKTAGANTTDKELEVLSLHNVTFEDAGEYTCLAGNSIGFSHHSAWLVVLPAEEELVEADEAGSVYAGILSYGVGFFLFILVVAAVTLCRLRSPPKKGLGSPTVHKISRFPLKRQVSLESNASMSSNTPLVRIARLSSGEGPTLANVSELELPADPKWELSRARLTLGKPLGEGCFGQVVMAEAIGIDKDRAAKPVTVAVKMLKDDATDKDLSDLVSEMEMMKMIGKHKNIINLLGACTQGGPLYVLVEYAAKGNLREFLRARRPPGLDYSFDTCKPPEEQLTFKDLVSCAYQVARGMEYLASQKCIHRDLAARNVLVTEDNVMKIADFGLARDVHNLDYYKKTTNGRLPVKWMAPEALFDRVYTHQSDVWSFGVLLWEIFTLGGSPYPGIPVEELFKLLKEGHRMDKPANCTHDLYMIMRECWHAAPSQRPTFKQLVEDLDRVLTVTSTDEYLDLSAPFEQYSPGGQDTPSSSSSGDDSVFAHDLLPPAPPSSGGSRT
Summary of the method: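 FGFR3 in 50 mM HEPES pH 7.5, 10 mM […]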

FGFR2 = target: T3, FGFR2 (Homo sapiens, UniProt P21802); assay: FGFR Enzymatic Assay (FRET peptide phosphorylation), FGFR2; conditions: FGFR2 0.01 nM, ATP 100 μM
T3 construct: purchased Millipore or Invitrogen
T3 sequence (P21802 22-821): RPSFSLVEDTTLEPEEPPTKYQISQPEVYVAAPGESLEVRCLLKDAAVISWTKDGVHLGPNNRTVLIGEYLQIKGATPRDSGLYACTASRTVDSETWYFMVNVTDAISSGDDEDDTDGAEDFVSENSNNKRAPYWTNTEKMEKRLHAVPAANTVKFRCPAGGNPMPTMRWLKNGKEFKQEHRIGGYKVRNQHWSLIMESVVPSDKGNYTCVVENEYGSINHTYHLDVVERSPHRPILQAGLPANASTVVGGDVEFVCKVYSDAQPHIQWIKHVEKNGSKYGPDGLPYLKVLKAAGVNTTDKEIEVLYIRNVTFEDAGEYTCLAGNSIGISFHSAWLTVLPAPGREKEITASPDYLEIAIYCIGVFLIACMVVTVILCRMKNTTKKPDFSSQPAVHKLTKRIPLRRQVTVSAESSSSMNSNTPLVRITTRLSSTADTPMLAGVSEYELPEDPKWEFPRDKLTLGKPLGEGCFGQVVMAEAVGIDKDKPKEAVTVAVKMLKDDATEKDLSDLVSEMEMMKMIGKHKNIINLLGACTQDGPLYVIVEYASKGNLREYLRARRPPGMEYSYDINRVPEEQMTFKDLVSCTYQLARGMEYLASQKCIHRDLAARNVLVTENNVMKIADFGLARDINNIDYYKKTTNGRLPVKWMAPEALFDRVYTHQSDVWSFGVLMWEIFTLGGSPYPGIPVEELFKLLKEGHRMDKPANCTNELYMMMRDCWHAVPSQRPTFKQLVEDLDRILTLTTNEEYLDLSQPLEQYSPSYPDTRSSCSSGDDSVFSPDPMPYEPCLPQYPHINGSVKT
Summary of the method: as §1

Measured: IC50

T1 sequence (P11362 22-822): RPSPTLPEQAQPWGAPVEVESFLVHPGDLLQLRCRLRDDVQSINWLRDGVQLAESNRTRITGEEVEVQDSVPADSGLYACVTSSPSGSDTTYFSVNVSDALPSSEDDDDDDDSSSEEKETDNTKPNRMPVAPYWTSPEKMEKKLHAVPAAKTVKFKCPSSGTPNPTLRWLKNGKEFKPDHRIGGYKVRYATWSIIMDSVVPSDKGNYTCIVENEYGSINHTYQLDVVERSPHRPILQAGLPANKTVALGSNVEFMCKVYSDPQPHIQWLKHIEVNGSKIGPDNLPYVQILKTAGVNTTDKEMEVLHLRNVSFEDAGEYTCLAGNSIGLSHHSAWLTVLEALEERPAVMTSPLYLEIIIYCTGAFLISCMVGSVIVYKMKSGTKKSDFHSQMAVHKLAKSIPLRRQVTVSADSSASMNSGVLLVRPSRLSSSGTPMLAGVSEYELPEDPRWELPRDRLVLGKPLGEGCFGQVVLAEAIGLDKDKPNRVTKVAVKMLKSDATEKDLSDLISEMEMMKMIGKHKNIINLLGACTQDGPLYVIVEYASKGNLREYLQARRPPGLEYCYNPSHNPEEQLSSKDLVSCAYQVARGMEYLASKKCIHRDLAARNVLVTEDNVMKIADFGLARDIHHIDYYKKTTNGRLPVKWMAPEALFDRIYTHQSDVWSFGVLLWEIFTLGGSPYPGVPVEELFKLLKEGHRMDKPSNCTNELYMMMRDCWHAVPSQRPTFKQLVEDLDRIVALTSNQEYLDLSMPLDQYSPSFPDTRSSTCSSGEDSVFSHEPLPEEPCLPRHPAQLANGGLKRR

COc1cc(OC)c(Cl)c(-c2ncc3c(-c4ccc(N5CCN(C)CC5)cc4)n[nH]c3n2)c1Cl [Example 75, 6-(2,6-Dichloro-3,5-dimethoxyphenyl)-3-[4-(4-methylpiperazin-1-yl)phenyl]-1H-pyrazolo[3,4-d]pyrimidine]
< 100 nM: all assays above

COc1cc(OC)c(Cl)c(-c2ncc3c(-c4ccc5c(c4)CN([C@H]4CC[C@H](O)CC4)C5=O)n[nH]c3n2)c1Cl [Example 23, 5-[6-(2,6-Dichloro-3,5-dimethoxyphenyl)-1H-pyrazolo[3,4-d]pyrimidin-3-yl]-2-(trans-4-hydroxycyclohexyl)isoindolin-1-one]
< 100 nM: all assays above

COc1cc(OC)c(F)c(-c2ncc3c(-c4ccc5c(c4)CN(CCN(C)C)C5=O)n[nH]c3n2)c1F [Example 80, 5-[6-(2,6-Difluoro-3,5-dimethoxyphenyl)-1H-pyrazolo[3,4-d]pyrimidin-3-yl]-2-[2-(dimethylamino)ethyl]isoindolin-1-one]
< 100 nM: all assays above

COc1cc(OC)c(Cl)c(-c2cc3[nH]nc(-c4cnn(C[C@H](C)O)c4)c3cn2)c1Cl [Example 51, (2S)-1-{4-[6-(2,6-Dichloro-3,5-dimethoxyphenyl)-1H-pyrazolo[4,3-c]pyridin-3-yl]-1H-pyrazol-1-yl}propan-2-ol]
< 100 nM: all assays above

COc1cc(OC)c(Cl)c(-c2cc3[nH]nc(-c4cnn(C(C)C#N)c4)c3cn2)c1Cl (stereo not drawn) [Example 33, 2-{4-[6-(2,6-Dichloro-3,5-dimethoxyphenyl)-1H-pyrazolo[4,3-c]pyridin-3-yl]-1H-pyrazol-1-yl}propanenitrile]
< 100 nM: all assays above

COc1cc(OC)c(Cl)c(-c2ncc3c(-c4ccc5c(c4)CN([C@H]4CC[C@@H](O)CC4)C5=O)n[nH]c3n2)c1Cl [Example 22, 5-[6-(2,6-Dichloro-3,5-dimethoxyphenyl)-1H-pyrazolo[3,4-d]pyrimidin-3-yl]-2-(cis-4-hydroxycyclohexyl)isoindolin-1-one]
< 100 nM: all assays above

COc1cc(OC)c(Cl)c(-c2cc3[nH]nc(-c4cnn(CC(=O)N5CCC(N(C)C)C5)c4)c3cn2)c1Cl (stereo not drawn) [Example 44, 1-({4-[6-(2,6-Dichloro-3,5-dimethoxyphenyl)-1H-pyrazolo[4,3-c]pyridin-3-yl]-1H-pyrazol-1-yl}acetyl)-N,N-dimethylpyrrolidin-3-amine]
< 100 nM: all assays above

COc1cc(OC)c(F)c(-c2ncc3c(-c4ccc5c(c4)CC(C(=O)N(C)C)O5)n[nH]c3n2)c1F (single isomer, unassigned) [Example 4, 5-[6-(2,6-Difluoro-3,5-dimethoxyphenyl)-1H-pyrazolo[3,4-d]pyrimidin-3-yl]-N,N-dimethyl-2,3-dihydro-1-benzofuran-2-carboxamide]
< 100 nM: all assays above

CCN1Cc2cc(-c3n[nH]c4cc(-c5c(F)c(OC)cc(OC)c5F)ncc34)ccc2C1=O [Example 52, 5-[6-(2,6-Difluoro-3,5-dimethoxyphenyl)-1H-pyrazolo[4,3-c]pyridin-3-yl]-2-ethylisoindolin-1-one]
< 100 nM: all assays above

COc1cc(OC)c(Cl)c(-c2cc3[nH]nc(-c4cnn(C)c4)c3cn2)c1Cl [Example 90, 6-(2,6-Dichloro-3,5-dimethoxyphenyl)-3-(1-methyl-1H-pyrazol-4-yl)-1H-pyrazolo[4,3-c]pyridine]
< 100 nM: all assays above

COc1cc(OC)c(F)c(-c2cc3[nH]nc(-c4ccc(N5CCN(C)CC5)cc4)c3cn2)c1F [Example 25, 6-(2,6-Difluoro-3,5-dimethoxyphenyl)-3-[4-(4-methylpiperazin-1-yl)phenyl]-1H-pyrazolo[4,3-c]pyridine]
< 100 nM: all assays above

COc1cc(OC)c(Cl)c(-c2ccc3c(-c4ccc5c(c4)CN(C4CC4)C5=O)n[nH]c3n2)c1F [Example 89, 5-[6-(2-Chloro-6-fluoro-3,5-dimethoxyphenyl)-1H-pyrazolo[3,4-b]pyridin-3-yl]-2-cyclopropylisoindolin-1-one]
< 100 nM: all assays above

CCN1Cc2cc(-c3n[nH]c4cc(-c5c(F)c(OC)cc(OC)c5F)ncc34)cnc2C1=O [Example 55, 3-[6-(2,6-Difluoro-3,5-dimethoxyphenyl)-1H-pyrazolo[4,3-c]pyridin-3-yl]-6-ethyl-5,6-dihydro-7H-pyrrolo[3,4-b]pyridin-7-one]
< 100 nM: all assays above

COc1cc(OC)c(Cl)c(-c2cc3[nH]nc(-c4cnn(CC(=O)NC5CCN(C)CC5)c4)c3cn2)c1Cl [Example 42, 2-{4-[6-(2,6-Dichloro-3,5-dimethoxyphenyl)-1H-pyrazolo[4,3-c]pyridin-3-yl]-1H-pyrazol-1-yl}-N-(1-methylpiperidin-4-yl)acetamide]
< 100 nM: all assays above

COc1cc(OC)c(F)c(-c2ncc3c(-c4ccc5c(c4)CCN(S(C)(=O)=O)C5)n[nH]c3n2)c1F [Example 13, 6-[6-(2,6-Difluoro-3,5-dimethoxyphenyl)-1H-pyrazolo[3,4-d]pyrimidin-3-yl]-2-(methylsulfonyl)-1,2,3,4-tetrahydroisoquinoline]
< 100 nM: all assays above

COc1cc(OC)c(Cl)c(-c2cc3[nH]nc(-c4ccc5c(c4)NC(=O)CO5)c3cn2)c1Cl [Example 30, 6-[6-(2,6-Dichloro-3,5-dimethoxyphenyl)-1H-pyrazolo[4,3-c]pyridin-3-yl]-2H-1,4-benzoxazin-3(4H)-one]
< 100 nM: all assays above

COCCN1Cc2cc(-c3n[nH]c4cc(-c5c(F)c(OC)cc(OC)c5F)ncc34)ccc2C1=O [Example 58, 5-[6-(2,6-Difluoro-3,5-dimethoxyphenyl)-1H-pyrazolo[4,3-c]pyridin-3-yl]-2-(2-methoxyethyl)isoindolin-1-one]
< 100 nM: all assays above

COc1cc(OC)c(Cl)c(-c2ncc3c(-c4ccc5c(c4)CCO5)n[nH]c3n2)c1Cl [Example 86, 6-(2,6-Dichloro-3,5-dimethoxyphenyl)-3-(2,3-dihydro-1-benzofuran-5-yl)-1H-pyrazolo[3,4-d]pyrimidine]
< 100 nM: all assays above

COc1cc(OC)c(F)c(-c2cc3[nH]nc(-c4ccc5c(c4)CCC(C(=O)N(C)C)O5)c3cn2)c1F (stereo not drawn) [Example 57, 6-[6-(2,6-Difluoro-3,5-dimethoxyphenyl)-1H-pyrazolo[4,3-c]pyridin-3-yl]-N,N-dimethylchromane-2-carboxamide]
< 100 nM: all assays above

COc1cc(OC)c(F)c(-c2cc3[nH]nc(-c4ccc5c(c4)CN(CC(F)(F)F)C5=O)c3cn2)c1F [Example 60, 5-[6-(2,6-Difluoro-3,5-dimethoxyphenyl)-1H-pyrazolo[4,3-c]pyridin-3-yl]-2-(2,2,2-trifluoroethyl)isoindolin-1-one]
< 100 nM: all assays above

COC(=O)c1cc2cc(-c3n[nH]c4cc(-c5c(F)c(OC)cc(OC)c5F)ncc34)ccc2o1 [Example 92, Methyl 5-[6-(2,6-difluoro-3,5-dimethoxyphenyl)-1H-pyrazolo[4,3-c]pyridin-3-yl]-1-benzofuran-2-carboxylate]
< 100 nM: all assays above

CCN1CCc2cc(-c3n[nH]c4nc(-c5c(Cl)c(OC)cc(OC)c5Cl)ncc34)ccc2C1=O [Example 10, 6-[6-(2,6-Dichloro-3,5-dimethoxyphenyl)-1H-pyrazolo[3,4-d]pyrimidin-3-yl]-2-ethyl-3,4-dihydroisoquinolin-1(2H)-one]
< 100 nM: all assays above

COc1cc(OC)c(F)c(-c2ncc3c(-c4ccc(N5CCN(C)CC5)cc4)n[nH]c3n2)c1F [Example 17, 6-(2,6-Difluoro-3,5-dimethoxyphenyl)-3-[4-(4-methylpiperazin-1-yl)phenyl]-1H-pyrazolo[3,4-d]pyrimidine]
< 100 nM: all assays above

COc1cc(OC)c(F)c(-c2ncc3c(-c4ccc5c(c4)CN(C(C)C)C5=O)n[nH]c3n2)c1F [Example 78, 5-[6-(2,6-Difluoro-3,5-dimethoxyphenyl)-1H-pyrazolo[3,4-d]pyrimidin-3-yl]-2-isopropylisoindolin-1-one]
< 100 nM: all assays above
